Measurements taken from paper PMC4645160, “Targeting kinases with anilinopyrimidines: discovery of N-phenyl-N’-[4-(pyrimidin-4-ylamino)phenyl]urea derivatives as selective inhibitors of class III receptor tyrosine kinase subfamily” (Scientific Reports, 2015).
One block for each compound: values may come before it.

What was measured:
[1] = system: A549 cells; test: MTT cytotoxicity assay, A549 lung cancer cells; format: cell-based, human; settings: for IC50: Homo sapiens, A549, 72 h, MTT test, 72 h of drug treatment, read-out: A549 IC50 (μM) ± SD; for Potency relative to SU (A549): ratio between IC50 of sunitinib and IC50 of tested compound
Description: (§1) Compounds active against at least one kinase among EGFR and class III RTKs were evaluated for their cytotoxic properties against two different human cancer cell lines, namely non small cells A549 lung cancer cells (sensitive to EGFR inhibitors)[46] and pancreatic BxPC3 adenocarcinoma (sensitive to both PDGFRβ and EGFR inhibitors)[47][48] cells. […] The results, expressed as IC50 values (μM) calculated from the dose-survival curves obtained after 72 h of drug treatment from the MTT test, are reported in Table 1.
(§2) All compounds, except derivative 27, were dissolved in DMSO just before the experiment, and a calculated amount of drug solution was added to the cell growth medium to a final solvent concentration of 0.5%, which had no discernible effect on cell killing. Compound 27 was dissolved in a 0.9% NaCl solution just before the experiment.
(§3) Human lung (A549), breast (MCF-7), pancreas (BxPC3), and colon (LoVo) carcinoma cell lines along with melanoma (A375) were obtained from American Type Culture Collection (ATCC, Rockville, MD). Human non-tumor embryonic kidney HEK293 cells were obtained from European Collection of Cell Cultures (ECACC, Salisbury, UK). Human cervical carcinoma A431cells were kindly provided by Prof. F. Zunino (Division of Experimental Oncology B, Istituto Nazionale dei Tumori, Milan, Italy). Human ovarian cancer 2008 cells were kindly provided by Prof. G. Marverti (Dept. of Biomedical Science of Modena University, Italy). Cell lines were maintained in the logarithmic phase at 37 °C in a 5% carbon dioxide atmosphere using the following culture media containing 10% fetal calf serum (Euroclone, Milan, Italy), antibiotics (50 units ∙ mL^−1 penicillin and 50 μg ∙ mL^−1 streptomycin) and 2 mM l-glutamine: i) RPMI-1640 medium (Euroclone) for MCF-7, A431, BxPC3 and 2008 cells; ii) F-12 HAM’S (Sigma Chemical Co.) for A549 and LoVo cells; iii) D-MEM medium (Euroclone) for HEK293 cells.
(§4) The growth inhibitory effect towards human cell lines was evaluated by means of MTT (tetrazolium salt reduction) assay. Briefly, 3–8 ∙ 10^3 cells/well, dependent upon the growth characteristics of the cell line, were seeded in 96-well microplates in growth medium (100 μL) and then incubated at 37 °C in a 5% carbon dioxide atmosphere. After 24 h, the medium was removed and replaced with a fresh one containing the test compound at the appropriate concentration. Triplicate cultures were established for each treatment. After 72 h, each well was treated with 10 μL of a 5 mg ∙ mL-1 MTT (3-(4,5-dimethylthiazol-2-yl)-2,5-diphenyltetrazolium bromide) saline solution, and after 5 h additional incubation, 100 μL of a sodium dodecylsulfate (SDS) solution in HCl 0.01 M were added. After overnight incubation, the inhibition of cell growth induced by the tested complexes was detected by measuring the absorbance of each well at 570 nm using a Bio-Rad 680 microplate reader (Bio-Rad, Hercules, CA). Mean absorbance for each drug dose was expressed as a percentage of the control untreated well absorbance and plotted vs drug concentration.

[2] = system: BxPC3 cells; test: MTT cytotoxicity assay, BxPC3 pancreatic adenocarcinoma cells; format: cell-based, human; settings: for IC50: Homo sapiens, BXPC-3, MTT test, 72 h of drug treatment, read-out: BxPC3 IC50 (μM) ± SD; for Potency relative to SU (BxPC3): ratio between IC50 of sunitinib and IC50 of tested compound
Description: as §1, §2, §3, §4

[3] = system: panel of 48 kinases; test: KinomeScan primary screening (POC) at 10 μM; format: binding, human; settings: POC values
Source text: Synthesized compounds were screened against a panel of 48 kinases selected within the ScanEDGE subset of DiscoverX (http://www.discoverx.com/services/drug-discovery-development-services/kinase-profiling/kinomescan/scanedge). The ScanEDGE includes 97 kinases and is an economical approach to assess compounds selectivity throughout the human kinome. All the wt-TKs along with some relevant mutants of Abl1 (T315I) and of EGFR (L858R and L858R/T790M) were chosen. The remaining 18 targets (3 Tyrosine Kinases-Like, TKLs; 15 Serine-Threonine Kinases, STKs) were selected among the remaining kinases in the ScanEDGE subset on the basis of their well established role in cancer (see Fig. S2 for a graphical representation of the selected kinases with reference to the kinome tree. Some references highlighting the role of each kinase in cancer are also reported in Table S3).
The compounds were evaluated using the KinomeScan™ platform (http://www.discoverx.com/services/drug-discovery-development-services/kinase-profiling/kinomescan), that measures the ability of the test compound to disrupt the complex between a high affinity ATP-mimic probe immobilized on a solid support and the kinase of interest. The KinomeScan is a very helpful technology for the fast and reliable screening of a number of compounds against a wide and customizable panel of kinases. Besides, it is not based on the use of hazardous radioactive ^32P-ATP and has a very low rate of false positive (<1%)[44]. The screening platform outputs a “Percent of Control” (POC) value, statistically correlated to the dissociation constant (Kd) value (http://www.discoverx.com/tools-resources/leadhunter-study-reports-data-analysis), for each pair of kinase/ligand. The POC is calculated as reported in equation (1):
Where: test compound signal = amount of kinase still binding the probe after treatment with test compound; negative control signal = amount of kinase still binding the probe after treatment with DMSO (100% control); positive control signal = amount of kinase still binding the probe after treatment with control compound (0% control).
The compounds were tested at high concentration (10 μM), in order to highlight not only the main target but also the off-targets. The results of the preliminary screening are reported as heat map (Fig. 4; see also Table S4 for all the measured values), in which the compounds are grouped on the basis of the 6 or 5 substituent at the pyrimidine ring.

[4] = system: LoVo cells; test: MTT cytotoxicity assay, LoVo colon carcinoma cells; format: cell-based; settings: Homo sapiens, MTT test, 72 h, read-out: LoVo IC50 (μM) ± SD
Description: (§5) The cytotoxic profile of 19 and 27 was assessed on a wider panel of human tumor cell lines including also examples of breast (MCF-7), cervical (A431), colorectal (HCT-15), and ovarian (2008) cancers as well as melanoma (A375), besides lung (A549) and pancreatic (BxPC3) cancer cells. IC50 values, calculated from the dose-survival curves obtained after 72 h of drug treatment from the MTT test, are reported in Table 2. […] Both compounds were endowed with a cytotoxic potency higher than that of SU, eliciting IC50 values in the low micromolar range.
as §2
(§6) Human lung (A549), breast (MCF-7), pancreas (BxPC3), and colon (LoVo) carcinoma cell lines along with melanoma (A375) were obtained from American Type Culture Collection (ATCC, Rockville, MD). Human non-tumor embryonic kidney HEK293 cells were obtained from European Collection of Cell Cultures (ECACC, Salisbury, UK). Human cervical carcinoma A431cells were kindly provided by Prof. F. Zunino (Division of Experimental Oncology B, Istituto Nazionale dei Tumori, Milan, Italy). Human ovarian cancer 2008 cells were kindly provided by Prof. G. Marverti (Dept. of Biomedical Science of Modena University, Italy). […]
(§7) The growth inhibitory effect towards human cell lines was evaluated by means of MTT (tetrazolium salt reduction) assay. […] After overnight incubation, the inhibition of cell growth induced by the tested complexes was detected by measuring the absorbance of each well at 570 nm using a Bio-Rad 680 microplate reader (Bio-Rad, Hercules, CA). Mean absorbance for each drug dose was expressed as a percentage of the control untreated well absorbance and plotted vs drug concentration.

[5] = system: HEK293 cells; test: MTT cytotoxicity assay, non-tumor HEK293 cells; format: cell-based, human; settings: Homo sapiens, HEK293; MTT test, 72 h, non-tumor cells; read-out: HEK293 IC50 (μM) ± SD
Description: F. Zunino (Division of Experimental Oncology B, Istituto Nazionale dei Tumori, Milan, Italy).
The growth inhibitory effect towards human cell lines was evaluated by means of MTT (tetrazolium salt reduction) assay. […] Triplicate cultures were established for each treatment.

[6] = system: 2008 cells; test: MTT cytotoxicity assay, 2008 ovarian cancer cells; format: cell-based; settings: Homo sapiens; MTT test, 72 h; read-out: 2008 IC50 (μM) ± SD
Description: as §5, §2, §6, §7

[7] = system: A375 cells; test: MTT cytotoxicity assay, A375 melanoma cells; format: cell-based; settings: Homo sapiens, A-375; MTT test, 72 h; read-out: A375 IC50 (μM) ± SD
Description: as §5, §2, §6, §7

[8] = system: MCF-7 cells; test: MTT cytotoxicity assay, MCF-7 breast cancer cells; format: cell-based; settings: Homo sapiens, MCF7; MTT test, 72 h; read-out: MCF-7 IC50 (μM) ± SD
Description: as §5, §2, §6, §7

SMILES: Nc1ccc(Nc2ncncc2-c2ccccc2)cc1 [Compound 25]
IC50 [1]: 26.1 ± 4.55 µM
Potency relative to SU (A549) [1]: 0.24
IC50 [2]: 27.9 ± 5.28 µM
Potency relative to SU (BxPC3) [2]: 0.18

SMILES: Cc1cccc(Nc2ncncc2-c2ccccc2)c1 [Compound 20]
Selectivity profile (kinases targeted) in primary screening [3]: Inactive

SMILES: Cc1cccc(Nc2cc(Nc3cccc(C)c3)ncn2)c1 [Compound 8]
IC50 [1]: > 50 µM
Potency relative to SU (A549) [1]: <0.12
IC50 [2]: > 50 µM
Potency relative to SU (BxPC3) [2]: <0.10

SMILES: O=C(Nc1ccccc1)Nc1ccc(Nc2ncncc2-c2ccccc2)cc1 [Compound 26]
Selectivity profile (kinases targeted) in primary screening [3]: class III RTK
IC50 [1]: 28.9 ± 5.86 µM
Potency relative to SU (A549) [1]: 0.21
IC50 [2]: 30.9 ± 4.18 µM
Potency relative to SU (BxPC3) [2]: 0.16

SMILES: Nc1ccc(Nc2cc(Nc3ccccc3)ncn2)cc1 [Compound 6]
IC50 [1]: 34 ± 4.98 µM
Potency relative to SU (A549) [1]: 0.18
IC50 [2]: 16.1 ± 4.85 µM
Potency relative to SU (BxPC3) [2]: 0.31

SMILES: Oc1ccc(Nc2cc(Nc3ccc(O)cc3)ncn2)cc1 [Compound 12]
Selectivity profile (kinases targeted) in primary screening [3]: EGFR; calss III RTK; AXL; TRKA; JAK3
IC50 [1]: > 50 µM
Potency relative to SU (A549) [1]: <0.12
IC50 [2]: > 50 µM
Potency relative to SU (BxPC3) [2]: <0.10

SMILES: CCN(CC)CCNC(=O)c1c(C)[nH]c(/C=C2\C(=O)Nc3ccc(F)cc32)c1C [SU, sunitinib, reference compound]
IC50 [4]: 8.18 ± 2.67 µM
IC50 [5]: 12.2 ± 2.83 µM
IC50 [6]: 3.52 ± 1.22 µM
IC50 [1]: 6.22 ± 1.84 µM
IC50 [2]: 5.05 ± 1.34 µM
IC50 [7]: 8.25 ± 2.88 µM
IC50 [8]: 2.58 ± 0.85 µM

More lines, main results first:

melting point: 267 °C
SMILES: c1ccc(Nc2cc(Nc3cccc(-c4ccccc4)c3)ncn2)cc1 [Compound 2]
IC50 [1]: 26.5 ± 3.85 µM
Potency relative to SU (A549) [1]: 0.23
IC50 [2]: 17.9 ± 2.46 µM
Potency relative to SU (BxPC3) [2]: 0.28

melting point: 118 °C
SMILES: Oc1ccc(Nc2ncncc2-c2ccccc2)cc1 [Compound 24]
IC50 [1]: 12.1 ± 1.99 µM
Potency relative to SU (A549) [1]: 0.51
IC50 [2]: 16.4 ± 4.22 µM
Potency relative to SU (BxPC3) [2]: 0.31

melting point: 253 °C
SMILES: Oc1cccc(Nc2cc(Nc3ccccc3)ncn2)c1 [Compound 3]
IC50 [1]: 28.2 ± 5.46 µM
Potency relative to SU (A549) [1]: 0.22
IC50 [2]: 8.19 ± 2.18 µM
Potency relative to SU (BxPC3) [2]: 0.62

melting point: 265 °C
SMILES: Cc1ccc(Nc2cc(Nc3ccccc3)ncn2)cc1 [Compound 4]
Selectivity profile (kinases targeted) in primary screening [3]: EGFR selective
IC50 [1]: 14.2 ± 2.75 µM
Potency relative to SU (A549) [1]: 0.44
IC50 [2]: 23.2 ± 4.29 µM
Potency relative to SU (BxPC3) [2]: 0.22

melting point: 243 °C
SMILES: Brc1cccc(Nc2cc(Nc3cccc(Br)c3)ncn2)c1 [Compound 9]
IC50 [1]: > 50 µM
Potency relative to SU (A549) [1]: <0.12
IC50 [2]: > 50 µM
Potency relative to SU (BxPC3) [2]: <0.10

melting point: 254 °C
SMILES: Cc1cccc(Nc2cc(Nc3ccccc3)ncn2)c1 [Compound 1]
Selectivity profile (kinases targeted) in primary screening [3]: EGFR selective
IC50 [1]: 8.94 ± 2.18 µM
Potency relative to SU (A549) [1]: 0.70
IC50 [2]: 6.43 ± 1.78 µM
Potency relative to SU (BxPC3) [2]: 0.79

melting point: 272 °C
SMILES: Cc1cccc(Nc2cc(-c3ccccc3)ncn2)c1 [Compound 13]
Selectivity profile (kinases targeted) in primary screening [3]: Inactive

melting point: 286 °C
SMILES: Oc1ccc(Nc2cc(Nc3ccccc3)ncn2)cc1 [Compound 5]
Selectivity profile (kinases targeted) in primary screening [3]: EGFR; class III RTK; AXL
IC50 [1]: 16.3 ± 4.24 µM
Potency relative to SU (A549) [1]: 0.38
IC50 [2]: 6.51 ± 1.07 µM
Potency relative to SU (BxPC3) [2]: 0.78
